{"source": "paper PMC2228596", "about": "(The Journal of General Physiology, 1980)", "key": {"[1]": {"tested_on": "voltage-dependent Na+ channels in excitable membranes", "conditions": "cited from earlier work; for Opening of Na+ channels: Catterall; for Effect on kinetics of activation and inactivation of Na+ channels: electrophysiology, Khodorov et al.; for Effect on kinetics of activation and inactivation of Na+ channels / Use dependence of activator effects: ref Ulbricht, 1969; for Use dependence of activator effects: intact nerve preparations, Albuquerque et al., Bartels-Bernal et al., 1977, Revenko"}, "[2]": {"tested_on": "Na+ channels in rat brain synaptosomes", "format": "cell-based"}, "[3]": {"tested_on": "Na+ channels in rat brain synaptosomes", "assay": "Synaptosome membrane potential", "format": "cell-based"}, "[4]": {"tested_on": "Na+ channels in synaptosomes", "conditions": "cited from earlier work; for Synaptosome depolarization: ref VER: Goldring and Blaustein, BTX: Krueger and Blaustein, 1978"}, "[5]": {"tested_on": "Na+ channels, neuroblastoma cells", "conditions": "ref Catterall (1977 b); cited from earlier work"}, "[6]": {"conditions": "ref Narahashi and Seyama, 1974, 1977 b"}, "[7]": {"conditions": "ref Albuquerque et al., 1973, 1975"}}, "note": "Read-outs that look alike come from different tables or passages of the source.", "data": [{"compound": "Grayanotoxin", "values": [{"measurement": "Opening of Na+ channels", "setting": "[1]; [6]", "result": "open Na + channels"}]}, {"compound": "anthopleurin-A [AxTX]", "values": [{"measurement": "Potentiation of BTX by AxTX", "setting": "[2]; 1 μM AxTX", "result": "potentiated the effects of BTX without itself greatly increasing Na + uptake"}, {"measurement": "Potentiation of VER by AxTX", "setting": "[2]; 1 μM AxTX", "result": "potentiated the effects of VER"}, {"measurement": "Effect of AxTX alone on Na+ uptake", "setting": "[2]; absence of VER or BTX", "result": "small increase in Na + uptake"}]}, {"compound": "CCN1C[C@]2(COC)[C@H](O)C[C@H](OC)[C@@]34[C@@H]5C[C@@]6(O)[C@H](OC(=O)c7ccccc7)[C@@H]5[C@@](OC(C)=O)([C@@H]([C@H](OC)[C@H]23)[C@@H]14)[C@@H](O)[C@@H]6OC", "note": "[aconitine]", "values": [{"measurement": "Opening of Na+ channels", "setting": "[1]; [6]", "result": "open Na + channels"}]}, {"compound": "COC(=O)[C@@H]1[C@H]2C[C@H]3c4[nH]c5ccccc5c4CCN3C[C@@H]2CC[C@@H]1O", "note": "[yohimbine]", "values": [{"measurement": "Antagonism of Na+ channel openers", "setting": "[1]; ref Huang et al., 1978", "result": "competitive antagonist of these agents"}]}, {"compound": "COc1ccc(C(=O)O[C@H]2CC[C@@]3(C)[C@@H]4CC[C@H]5[C@]6(O)C[C@H](O)[C@@]7(O)[C@@H](CN8C[C@@H](C)CC[C@H]8[C@@]7(C)O)[C@]6(O)C[C@@]53O[C@]24O)cc1OC", "note": "[VER, veratridine]", "values": [{"measurement": "Time to complete depolarizing effect", "setting": "[3]; data not shown", "result": "up to 5 min"}, {"measurement": "Depolarization relative to maximally effective BTX or 150 mM K+ (ΔF = 100%)", "setting": "[3]; highest concentration tested, 300 μM VER, no LqTX", "result": "50-60%"}, {"measurement": "Maximal effect of VER on Na+ uptake with LqTX", "setting": "[2]; 0.1 μM LqTX", "result": "increased in the presence of LqTX to the same level observed in the presence of 10 ~M BTX"}, {"measurement": "Na+ uptake at maximally effective VER with AxTX", "setting": "[2]; 1 μM AxTX", "result": "increased in the presence of AxTX"}, {"measurement": "Release of neurotransmitters from synaptosomes", "setting": "[4]; ref Blaustein, 1975, Cotman et al., 1976", "result": "VER-stimu- lated release of neurotransmitters"}, {"measurement": "Ca2+ uptake into synaptosomes", "setting": "[4]; ref Blaustein, 1975, Nachshen and Blaustein, 1979", "result": "VER-stimulated Ca2+ uptake"}, {"measurement": "Uptake of Na+ into synaptosomes", "setting": "[4]; ref Li and White (1977), Matthews et al. (1979)", "result": "VER-stimulated, TTX-sensitive uptake of Na + into synaptosomes"}, {"measurement": "Synaptosome depolarization", "setting": "[4]; 1975", "result": "induced synaptosome depolarization"}, {"measurement": "Preference of binding to open over nonopen states", "setting": "[5]", "result": "~ 600 times"}, {"measurement": "Effect on kinetics of activation and inactivation of Na+ channels", "setting": "[1]; 1975", "result": "alter the kinetic properties of the rapid, voltage-sensitive activation and inactivation of Na + channels"}, {"measurement": "Use dependence of activator effects", "setting": "[1]; 1973", "result": "use dependent"}, {"measurement": "Opening of Na+ channels", "setting": "[1]; [7]", "result": "open TTX-sensitive Na + channels"}]}, {"compound": "batrachotoxin [BTX]", "values": [{"measurement": "Fluorescence increase in low-Na medium", "setting": "[3]; 30 μM BTX, 140 Ch + 5 Na + 5 K, data not shown", "result": "same amount as did increasing the external K concentration from 5 to 8 mM"}, {"measurement": "Time to complete depolarizing effect", "setting": "[3]; data not shown", "result": "up to 5 min"}, {"measurement": "Maximal depolarization, ΔF (% of 150 mM K+)", "setting": "[3]; maximally effective concentration of BTX, no LqTX", "result": 100, "unit": "%"}, {"measurement": "Effect of BTX >0.3 μM in presence of LqTX", "setting": "[2]; 0.1 μM LqTX", "result": "slightly inhibitory"}, {"measurement": "BTX-stimulated 22Na influx during the second s of incubation", "setting": "[2]; 10 μM BTX", "result": "slightly less than that during the first s"}, {"measurement": "Na+ concentration up to which BTX-stimulated uptake is proportional to Na+", "setting": "[2]; 10 μM BTX, 2 s uptake, 2.5-30 mM Na+", "result": "up to 5 mM"}, {"measurement": "Na+ uptake rate", "setting": "[2]; 10 μM BTX, 5 min at 30°C, 5 mM Na+", "result": "~ 1 nmol s-1 mg-1"}, {"measurement": "Maximal Na+ uptake by BTX without vs with LqTX", "setting": "[2]; each of three experiments", "result": "slightly greater in the absence than in the presence of LqTX"}, {"measurement": "Time to isotopic equilibrium", "setting": "[2]; presence of 10 μM BTX, 30°C", "result": "about 5 s"}, {"measurement": "Synaptosome depolarization", "setting": "[4]; 1975", "result": "induced synaptosome depolarization"}, {"measurement": "Effect on kinetics of activation and inactivation of Na+ channels", "setting": "[1]; 1975", "result": "alter the kinetic properties of the rapid, voltage-sensitive activation and inactivation of Na + channels"}, {"measurement": "Use dependence of activator effects", "setting": "[1]; 1973", "result": "use dependent"}, {"measurement": "Opening of Na+ channels", "setting": "[1]; [7]", "result": "open TTX-sensitive Na + channels"}]}]}
